Structures can show the parent of a compound that is named as a salt.
Tests used:
[1] = test system: LI0050 HCC patient derived cells; assay: CellTiter-Glo growth inhibition, HCC patient-derived cells LI0050; format: cell-based, human; conditions: Homo sapiens; LI0050, 72 hours
Method: (§1) The patient derived Hepatocellular Carcinoma (HCC) cells were maintained in medium respectively described in table 15 containing 1% penicillin-streptomycin (Life Technologies, 15070-063), with a supplements for primary cell culture (PCS) containing hydrocortisone (50 nM), Epidermal Growth Factor (20 ng/ml), β-fibroblast Growth Factor (10 ng/ml), Heparin (2 μg/ml) ITS liquid media supplement (1×) and non-essential amino acid (NEAA, 0.01 mM, 1×). The primary cell were cultured in a humidified atmosphere (95% relative humidity) with 5% CO2 at 37° C.
(§2) The cell growth inhibition assay was performed as described previously in example 5 using the CellTiter-Glo® luminescent cell viability assay as described by the manufacturer (Promega, Ref G7571). The number of cells seeded per well (in 96-Well Flat Clear Bottom Black Polystyrene TC-Treated Microplates, Cat #3340, Corning®) is described in the table 16. A backseal black sticker (Cat #6005189, Perkin Elmer) was placed to the bottom of each plate before recording CellTiter-Glo® luminescence.
(§3) The experimental data are analyzed using a computer program, Graphpad Prism V 5.0 (GraphPad Software, Inc. La Jolla, Calif.) and EC50 values were determined as the dose of compound required to reduce absorbance values to 50% of the signal obtained for vehicle treated cell cultures and were a mean of at least three independent experiments.

[2] = test system: LI1005 HCC patient derived cells; assay: CellTiter-Glo growth inhibition, HCC patient-derived cells LI1005; format: cell-based, human; conditions: Homo sapiens; LI1005, 72 hours
Method: as §1, §2, §3

An EC50 [1] of 3.5 µM and an EC50 [2] of 3.2 µM were found for `CC(C)(C)NC1CCN(c2cc(NCc3ccc(Cl)cc3)nc3ccccc23)CC1` [Compound 2-3, 2-(4-chlorobenzylamino)-4-(4-tert-butylaminopiperidin-1-yl)-quinoline hydrochloride salt] in this work.

From US10722505B2, “Substituted 2,4 diamino-quinoline as new anticancer agents” (GENOSCIENCE PHARMA, priority 2014, dated 2020)
